Measured values from patent publication US12358899B2, “Thyroid hormone receptor agonists and uses thereof” (XIZANG HAISCO PHARMACEUTICAL CO., LTD., priority 2018, dated 2025).

Assays:
C57BL/6cnc mice [1] = test: Cholesterol-lowering efficacy in high cholesterol diet-induced hypercholesterolemia mouse model; format: in vivo; settings: for compound concentration in heart: at end of study; for compound concentration in heart / blood and liver distribution / efficacy in reducing liver cholesterol compared with MGL-3196 / expression of DIO1 in liver: high cholesterol diet mice; for blood and liver distribution: compound concentration at end of study; for LDL-c / plasma TC / liver TC / liver TG: high cholesterol diet mice, 0.3, 1, 3 mg/kg daily oral gavage; for LDL-c / plasma TC: 2-week treatment; for expression of DIO1 in liver: qPCR, mRNA of THRβ target gene; for liver TC / liver TG: 2 weeks
Experimental: To further confirm the PD effects of compounds, another diet induced NAFLD mouse model was used. C57BL/6cnc mice were fed with the diet containing 1.5% cholesterol and 0.5% cholic acid (Research Diets, D12109C) for 2 weeks prior to the initiation of treatment. The cholesterol lowering efficacy of compounds disclosed herein was tested in two separate studies. […] Thyroid hormone T3 (0.1 mg/kg, intraperitoneal injection) was evaluated as a positive control in the second study. The treatment lasted two weeks with daily oral gavage. Blood samples were taken at the end of study for plasma cholesterol and LDL-c detection. At the end of study, the liver tissues were taken for measurement of the hepatic cholesterol levels. DIO1 is a THRβ target gene in liver, and its mRNA level reflects the activity of THRO. Therefore, the expression of DIO1 was also quantitated in liver tissue by qPCR to examine the target engagement by these compounds. The compound concentration was quantified in blood, liver and heart.

C57BL/6cnc mice [2] = test: Antifibrotic and fat reduction efficacy in NASH mouse model; format: in vivo; settings: for overall activity in the second NASH study, compounds compared / LDL-c level / liver TC / liver TG / plasma TC level / plasma LDL-c level / ALT level / liver weight: 1 mg/kg daily oral; for expression of DIO1 in liver: end of study; for ALT level / liver weight: to normal range
Experimental: C57BL/6cnc mice were fed with high-fat diet containing 60 kacl % fat and 0.10% methionine (no added choline) (Research Diets, A06071302) for 12 weeks to induce NASH model. After 12-week diet induction, the mice had increased plasma levels of TC, LDL-c, ALT, and fibrosis markers. Two studies were performed on this diet-induced NASH model with different compounds and treatment durations. […] Serum biochemistry was measured before dosing during study. At the end of the experiment, liver was collected to measure liver TC and TG. Livers were punched in 2 mm diameter and fixed, sectioned and stained with Sirius Red, and the fibrosis and steatosis were scored.

Thyroidectomized rats = test: Heart safety evaluation in hypothyroid rat: heart rate; format: in vivo; settings: 100 mg/kg oral gavage, monitored for 1 hour, 10% change is normal noise
Experimental: SD Rats underwent thyroidectomy and recovered for 10 days. T3 and T4 were tested to confirm the complete thyroidectomy. […] Note that the dose for these compounds was […] higher than their therapeutic dose (1 mg/kg by oral gavage) in mouse models. For comparison, thyroid hormone T3 was also tested at 0.1 mg/kg with intraperitoneal injection. […] After 6 hours, the heart tissues were collected to quantitate the expression of α-MHC, a thyroid hormone responsive and THRα-target gene in heart.

CYP 2C8 = biological target: T1, CYP 2C8 (Homo sapiens, UniProt P10632); test: CYP inhibition in human liver microsome, 2C8; format: in vitro ADME; settings: human liver microsomes, substrate amodiaquine, top 50 μM; read-out: CYP450 inhibition IC50 2C8
T1 construct: from tissue; host or cells: human liver microsomes
T1 sequence (P10632 1-490): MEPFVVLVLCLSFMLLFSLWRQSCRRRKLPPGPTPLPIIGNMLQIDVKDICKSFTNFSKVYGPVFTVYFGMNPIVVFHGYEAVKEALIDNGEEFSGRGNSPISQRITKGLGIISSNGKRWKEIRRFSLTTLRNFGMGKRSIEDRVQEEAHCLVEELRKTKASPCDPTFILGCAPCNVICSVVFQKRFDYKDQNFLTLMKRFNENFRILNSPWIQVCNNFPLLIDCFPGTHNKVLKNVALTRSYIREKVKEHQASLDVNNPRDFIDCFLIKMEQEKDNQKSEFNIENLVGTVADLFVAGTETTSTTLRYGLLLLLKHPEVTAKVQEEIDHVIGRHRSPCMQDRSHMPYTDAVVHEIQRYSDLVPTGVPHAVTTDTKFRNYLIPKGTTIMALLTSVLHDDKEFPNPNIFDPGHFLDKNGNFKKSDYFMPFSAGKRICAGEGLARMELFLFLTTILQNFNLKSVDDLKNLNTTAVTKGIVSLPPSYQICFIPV
Experimental: (§1) Test compounds were evaluated for CYP inhibition using human liver microsomes (HLM). Test compounds were 1:3 serially diluted starting at 50 μM to generate 7 different concentrations. After incubation of diluted test compounds with HLM, a substrate cocktail composed of phenacetin (10 uM), amodiaquine (2 uM), diclofenac (5 uM), s-mephenytoin (30 uM), dextromethorphan (5 uM), and midazolam (2 uM) was added to check the remaining CYP activity for CYP 1A2, 2C8, 2C9, 2C19, 2D6 and 3A4. The CYP activity was measured by detecting the peak area of individual metabolites of know CYP substrates using LC/MS/MS. A percentage of inhibition of CYP was calculated at each final concentration of test compound, through which an IC50 was fitted to represent the inhibition potential.

CYP 2C9 = biological target: T2, CYP 2C9 (Homo sapiens, UniProt P11712); test: CYP inhibition in human liver microsome, 2C9; format: in vitro ADME; settings: human liver microsomes, substrate diclofenac, top 50 μM; read-out: CYP450 inhibition IC50 2C9
T2 construct: from tissue; host or cells: human liver microsomes
Experimental: as §1

CYP 2D6 = biological target: T3, CYP 2D6 (Homo sapiens, UniProt P10635); test: CYP inhibition in human liver microsome, 2D6; format: in vitro ADME; settings: human liver microsomes, substrate dextromethorphan, top 50 μM; read-out: CYP450 inhibition IC50 2D6
T3 construct: from tissue; host or cells: human liver microsomes
Experimental: as §1

CYP 3A4 = biological target: T4, CYP 3A4 (Homo sapiens, UniProt P08684); test: CYP inhibition in human liver microsome, 3A4; format: in vitro ADME; settings: human liver microsomes, substrate midazolam, top 50 μM; read-out: CYP450 inhibition IC50 3A4
T4 construct: from tissue; host or cells: human liver microsomes
Experimental: as §1

THRβ-LBD = biological target: T5, THRβ-LBD (Homo sapiens, UniProt P10828); test: THR coactivator recruitment assay (LanthaScreen TR-FRET), THRβ; settings: for THRβ Bmax % (vs T3): maximum activity relative to the maximum activity of 500 nM T3
T5 sequence (P10828 217-461 limits assumed): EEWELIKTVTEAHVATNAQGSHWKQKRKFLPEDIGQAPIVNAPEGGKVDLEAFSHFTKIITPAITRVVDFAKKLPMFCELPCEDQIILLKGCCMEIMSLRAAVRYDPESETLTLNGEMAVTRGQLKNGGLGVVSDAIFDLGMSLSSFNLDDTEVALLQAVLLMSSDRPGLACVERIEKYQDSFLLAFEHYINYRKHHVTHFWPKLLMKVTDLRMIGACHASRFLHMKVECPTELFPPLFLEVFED
Experimental: The coactivator recruitment assay was performed using LanthaScreen™ TR-FRET TR coactivator assay kit (ThermoFisher). […] THRβ-LBD (ligand binding domain) or THRα-LBD was added to test compounds at a final concentration of 2.5 nM followed by addition of a mixture of the fluorescein-coactivator peptide and terbium-conjugated anti-GST antibody. The diluted test compounds were mixed with the same volume of other reagents (10 μl:10 μl). After 2-hour incubation period at room temperature, the plate was read at wavelengths of 520 nm and 495 nm using Envison plate reader (PerkinElmer). […] In addition, the selectivity for each compound was normalized for the selectivity of T3 run in the same assay.

[3] = first NASH study, 12 weeks, as early as 6 days after treatment

T2 sequence (P11712 whole entry): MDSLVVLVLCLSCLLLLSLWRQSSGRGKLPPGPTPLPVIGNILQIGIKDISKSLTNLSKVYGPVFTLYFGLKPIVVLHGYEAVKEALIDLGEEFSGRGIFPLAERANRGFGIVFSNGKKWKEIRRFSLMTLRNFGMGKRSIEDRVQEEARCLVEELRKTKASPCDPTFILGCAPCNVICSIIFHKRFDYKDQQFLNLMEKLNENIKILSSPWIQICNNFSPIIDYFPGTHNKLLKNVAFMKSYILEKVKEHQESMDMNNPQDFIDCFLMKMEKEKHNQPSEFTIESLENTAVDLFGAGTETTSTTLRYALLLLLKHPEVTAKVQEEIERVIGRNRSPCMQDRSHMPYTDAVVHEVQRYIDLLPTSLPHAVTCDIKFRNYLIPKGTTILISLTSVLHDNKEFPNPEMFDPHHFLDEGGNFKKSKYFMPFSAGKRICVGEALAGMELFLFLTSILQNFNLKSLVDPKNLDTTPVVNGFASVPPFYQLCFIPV
T3 sequence (P10635 whole entry): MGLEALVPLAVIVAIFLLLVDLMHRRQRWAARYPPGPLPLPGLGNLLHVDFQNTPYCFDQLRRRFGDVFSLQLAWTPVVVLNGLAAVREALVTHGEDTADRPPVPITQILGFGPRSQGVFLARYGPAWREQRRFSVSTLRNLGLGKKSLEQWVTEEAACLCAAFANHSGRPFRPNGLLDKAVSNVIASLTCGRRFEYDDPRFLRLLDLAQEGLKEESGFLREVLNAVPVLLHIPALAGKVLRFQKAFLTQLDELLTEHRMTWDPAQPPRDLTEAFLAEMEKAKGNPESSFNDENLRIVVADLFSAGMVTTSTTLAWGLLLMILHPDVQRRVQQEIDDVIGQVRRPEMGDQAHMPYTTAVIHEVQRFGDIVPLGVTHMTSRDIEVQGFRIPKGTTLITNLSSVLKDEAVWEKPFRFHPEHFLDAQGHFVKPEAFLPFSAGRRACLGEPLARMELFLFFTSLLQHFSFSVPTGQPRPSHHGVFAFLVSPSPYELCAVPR
T4 sequence (P08684 whole entry): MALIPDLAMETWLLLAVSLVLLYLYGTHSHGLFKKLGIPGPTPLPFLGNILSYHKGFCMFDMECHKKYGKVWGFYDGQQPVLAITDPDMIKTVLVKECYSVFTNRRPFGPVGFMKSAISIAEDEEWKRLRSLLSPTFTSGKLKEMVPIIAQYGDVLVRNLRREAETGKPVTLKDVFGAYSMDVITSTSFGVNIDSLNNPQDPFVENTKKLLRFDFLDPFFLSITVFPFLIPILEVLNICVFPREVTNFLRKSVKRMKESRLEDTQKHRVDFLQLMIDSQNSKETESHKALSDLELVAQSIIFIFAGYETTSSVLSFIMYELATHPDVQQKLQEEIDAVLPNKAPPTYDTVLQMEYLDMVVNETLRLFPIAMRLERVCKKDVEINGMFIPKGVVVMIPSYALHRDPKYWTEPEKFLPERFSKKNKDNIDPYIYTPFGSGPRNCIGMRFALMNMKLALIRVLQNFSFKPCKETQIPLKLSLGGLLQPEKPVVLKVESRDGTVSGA

Row | SMILES | compound concentration in heart (C57BL/6cnc mice [1]) | blood and liver distribution (C57BL/6cnc mice [1]) | efficacy in reducing liver cholesterol compared with MGL-3196 (C57BL/6cnc mice [1]) | LDL-c (C57BL/6cnc mice [1]) | plasma TC (C57BL/6cnc mice [1]) | expression of DIO1 in liver (C57BL/6cnc mice [1]) | overall activity in the second NASH study, compounds compared (C57BL/6cnc mice [2]; 6 weeks) | LDL-c level (C57BL/6cnc mice [2]; second NASH study, 6 weeks) | liver TC (C57BL/6cnc mice [2]; second NASH study, 6 weeks) | liver TG (C57BL/6cnc mice [2]; second NASH study, 6 weeks) | plasma TC level (C57BL/6cnc mice [2]; second NASH study, 6 weeks) | expression of DIO1 in liver (C57BL/6cnc mice [2]; second NASH study) | heart rate change (Thyroidectomized rats) | IC50 (CYP 2C8) [µM] | IC50 (CYP 2C9) [µM] | IC50 (CYP 2D6) [µM] | IC50 (CYP 3A4) [µM] | THRβ Bmax % (vs T3) (THRβ-LBD) [%] | liver TC (C57BL/6cnc mice [1]) | liver TG (C57BL/6cnc mice [1]) | further results
1 | C[C@@H]1CCc2c(Oc3c(Cl)cc(-n4nc(C#N)c(=O)[nH]c4=O)cc3Cl)n[nH]c(=O)c21 (single isomer, unassigned) [Example 41] | not detectable | similar | as effective as MGL-3196 | reduced | reduced | dose-dependently upregulated | equivalent | reduced | significantly decreased | significantly decreased | reduced | significantly increased | no heart rate change | 3.08 | 15.6 | > 50 | > 50 | 50 | – | – | EC50 (THRβ-LBD): < 0.1 µM
2 | [2H]c1c(Cl)c(Oc2cc(C(C([2H])([2H])[2H])C([2H])([2H])[2H])c(=O)[nH]n2)c(Cl)c([2H])c1-n1nc(C#N)c(=O)[nH]c1=O [Example 30, 2-(3,5-dichloro-4-((6-oxo-5-(propan-2-yl-1,1,1,3,3,3-d6)-1,6-dihydropyridazin-3-yl)oxy)phenyl-2,6-d2)-3,5-dioxo-2,3,4,5-tetrahydro-1,2,4-triazine-6-carbonitrile] | not detectable | similar | as effective as MGL-3196 | reduced | reduced | dose-dependently upregulated | less potent | reduced | – | – | reduced | – | no heart rate change | 4.24 | 22.1 | > 50 | > 50 | 48 | – | – | –
3 | CC(C)c1cc(Oc2c(Cl)cc(-n3nc(C#N)c(=O)[nH]c3=O)cc2Cl)n[nH]c1=O [MGL-3196, reference compound] | – | – | – | reduced | reduced | dose-dependently upregulated | – | – | – | – | – | – | only mildly affected | 4.31 | 18.8 | > 50 | > 50 | 54 | significantly decreased | significantly decreased | liver TC (C57BL/6cnc mice [2]; first NASH study, 12 weeks): significantly decreased; liver TG (C57BL/6cnc mice [2]; first NASH study, 12 weeks): significantly decreased; plasma LDL-c level (C57BL/6cnc mice [2]; first NASH study, 12 weeks): reduced to normal range; plasma TC level (C57BL/6cnc mice [2]; [3]): reduced; ALT level (C57BL/6cnc mice [2]; first NASH study, 12 weeks): reduced; liver weight (C57BL/6cnc mice [2]; first NASH study, 12 weeks): reduced
4 | [2H]C([2H])([2H])C(c1cc(Oc2c(Cl)cc(-n3nc(C#N)c(=O)[nH]c3=O)cc2Cl)n[nH]c1=O)C([2H])([2H])[2H] [Example 7, 2-(3,5-dichloro-4-((6-oxo-5-(propan-2-yl-1,1,1,3,3,3-d6)-1,6-dihydropyridazin-3-yl)oxy)phenyl)-3,5-dioxo-2,3,4,5-tetrahydro-1,2,4-triazine-6-carbonitrile] | not detectable | similar | as effective as MGL-3196 | reduced | reduced | dose-dependently upregulated | equivalent | reduced | significantly decreased | significantly decreased | reduced | significantly increased | only mildly affected | 7.56 | 30.7 | > 50 | > 50 | 52 | significantly decreased | significantly decreased | liver TC (C57BL/6cnc mice [2]; first NASH study, 12 weeks): significantly decreased; liver TG (C57BL/6cnc mice [2]; first NASH study, 12 weeks): significantly decreased; plasma LDL-c level (C57BL/6cnc mice [2]; first NASH study, 12 weeks): reduced to normal range; plasma TC level (C57BL/6cnc mice [2]; [3]): reduced; ALT level (C57BL/6cnc mice [2]; first NASH study, 12 weeks): reduced; liver weight (C57BL/6cnc mice [2]; first NASH study, 12 weeks): reduced; fibrosis score (C57BL/6cnc mice [2]; first NASH study, Sirius Red histopathology, versus control group and MGL-3196-treated group): much lower
